Among the data in PubChem BioAssay (NCI) are GI50 and TGI values, retold here.

Each structure is given as a SMILES string.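 Five compound concentrations were applied to cells in 96-well plates for 48 hours; endpoints were derived by simple linear interpolation of the resulting dose-response curve. Abbreviation: GI50, concentration required for 50% inhibition of growth. TGI: concentration producing complete growth inhibition.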 Some results are limits rather than exact numbers.

Some test systems named below: OVCAR-5 ovarian; SK-OV-3 ovarian; MOLT-4 leukemia; SNB-19 CNS; OVCAR-4 ovarian; U251 CNS; HOP-62 NSCLC; NCI-H522 lung; HS 578T breast; MDA-MB-231 breast.
Common to all, as to experiment: NCI tumour cell line growth inhibition, 48 h

For the compound `[Cl][Sn]([Cl])([c]1ccccc1)[c]1ccccc1`, the GI50 was 15.8 µM in the experiment with OVCAR-5 ovarian; 17.4 µM in the experiment on SK-OV-3 ovarian; 5.25 µM in the experiment on MOLT-4 leukemia; 14.6 µM in the experiment on SNB-19 CNS; 16.8 µM in the experiment with OVCAR-4 ovarian; 13.4 µM with U251 CNS. Moreover, the TGI in the experiment on OVCAR-5 ovarian worked out at 29.3 µM; with SK-OV-3 ovarian, 31.6 µM; in the experiment on MOLT-4 leukemia, 36.9 µM; with SNB-19 CNS, 27.7 µM; with OVCAR-4 ovarian it was 31 µM; in the experiment with U251 CNS it was 28.6 µM.

With `CC(=O)N1c2ccccc2C2=CC3C4C(=O)N(c5ccccc5)C(=O)C4C21C1C(=O)N(c2ccccc2)C(=O)C31` (centres undefined), the TGI in the experiment on OVCAR-5 ovarian, in the experiment on SK-OV-3 ovarian, with MOLT-4 leukemia, with SNB-19 CNS and in the experiment with U251 CNS was above 100 µM throughout.

For `CCN(CC)CCCn1cnc2ncccc2c1=O`, the TGI in the experiment with HOP-62 NSCLC, in the experiment on OVCAR-5 ovarian, with NCI-H522 lung, in the experiment on SK-OV-3 ovarian, in the experiment on SNB-19 CNS and in the experiment on OVCAR-4 ovarian was above 100 µM each time. Also, the TGI with U251 CNS is above 100 µM.

Take `CCCCCCCC(=O)NCC(O)CNC(=O)CCCCCCC`: the TGI in the experiment on HOP-62 NSCLC, in the experiment on OVCAR-5 ovarian, with NCI-H522 lung, in the experiment on SK-OV-3 ovarian, in the experiment on MOLT-4 leukemia and in the experiment with SNB-19 CNS was above 100 µM each time. The TGI in the experiment with OVCAR-4 ovarian and in the experiment with U251 CNS was above 100 µM throughout.

Consider `O=C(CCC(=O)Nc1cccc(Cl)c1)CC(=O)c1ccc(F)cc1`, for which the TGI in the experiment on HOP-62 NSCLC, with OVCAR-5 ovarian, in the experiment with NCI-H522 lung, in the experiment with SK-OV-3 ovarian, with MOLT-4 leukemia and in the experiment with SNB-19 CNS was above 100 µM each time. For the same compound, the TGI in the experiment on OVCAR-4 ovarian is above 100 µM.

Consider `CN(C)CCN(C)CC1COC(C)(C)O1` (centres undefined), for which the TGI in the experiment with HOP-62 NSCLC, in the experiment with OVCAR-5 ovarian, in the experiment with NCI-H522 lung, in the experiment on SK-OV-3 ovarian, with MOLT-4 leukemia and with SNB-19 CNS was above 100 µM in each case. For the same compound, the TGI with OVCAR-4 ovarian and in the experiment on U251 CNS was above 100 µM in each case.

With `O=C(O)C1=CCCc2ccc3ccccc3c21`, the TGI with OVCAR-5 ovarian, with NCI-H522 lung, in the experiment on SK-OV-3 ovarian, with MOLT-4 leukemia, in the experiment with SNB-19 CNS and in the experiment with OVCAR-4 ovarian was above 100 µM throughout. In addition, in the experiment with U251 CNS, the TGI was above 100 µM.

Take `CC(C)Nc1ccc(Nc2ccccc2)cc1`: the GI50 in the experiment with HOP-62 NSCLC is 23.6 µM; in the experiment on OVCAR-5 ovarian, 24.6 µM; with NCI-H522 lung it was 13.7 µM; in the experiment on SK-OV-3 ovarian, 39.9 µM; with MOLT-4 leukemia, 21.2 µM; in the experiment with SNB-19 CNS it was 25.5 µM. The GI50 was 38.3 µM with HS 578T breast, 8.32 µM with MDA-MB-231 breast and 12.8 µM with U251 CNS. The TGI in the experiment with HOP-62 NSCLC was 66.9 µM; with OVCAR-5 ovarian it was 57.1 µM; in the experiment on NCI-H522 lung, 28.8 µM; in the experiment on SK-OV-3 ovarian, above 100 µM; with MOLT-4 leukemia, above 100 µM; in the experiment with SNB-19 CNS, above 100 µM. Moreover, the TGI in the experiment with HS 578T breast is above 100 µM; in the experiment on MDA-MB-231 breast, 35.6 µM; in the experiment with U251 CNS it was 32 µM.

With `Cn1c2c(c3ccccc31)CCN(CCN1CCN(c3ccccc3)CC1)C2=O`, the TGI was 92.9 µM in the experiment on NCI-H522 lung, above 100 µM in the experiment with SK-OV-3 ovarian, above 100 µM in the experiment on MOLT-4 leukemia and above 100 µM in the experiment with U251 CNS.

For `COc1ccc(NC(=O)CC(=O)N2N=C(N(CCC#N)c3ccccc3Cl)CC2c2ccccc2)cc1` (centres undefined), the TGI with HOP-62 NSCLC, in the experiment with OVCAR-5 ovarian, in the experiment with NCI-H522 lung, in the experiment with MOLT-4 leukemia, in the experiment with SNB-19 CNS and in the experiment with OVCAR-4 ovarian was above 100 µM in each case. This compound also registered a TGI with U251 CNS above 100 µM.

On to `Nc1nc2sc3ccccc3c(=O)n2n1`, for which the TGI in the experiment with HOP-62 NSCLC, in the experiment on OVCAR-5 ovarian, in the experiment on SK-OV-3 ovarian, in the experiment with MOLT-4 leukemia, in the experiment on SNB-19 CNS and with OVCAR-4 ovarian was above 100 µM throughout. This compound also came in with a TGI in the experiment on U251 CNS above 100 µM.

Regarding `CC[O-].CC[O-].O=C([CH-]C(=O)c1cccnc1)c1ccccc1.O=C([CH-]C(=O)c1cccnc1)c1ccccc1.[Ti+4]`, the GI50 in the experiment with HOP-62 NSCLC was 48.4 µM; in the experiment with OVCAR-5 ovarian it was above 100 µM; in the experiment on NCI-H522 lung, 26.1 µM; with SK-OV-3 ovarian it was 91.8 µM; in the experiment on MOLT-4 leukemia, 13.6 µM; in the experiment with SNB-19 CNS, 50 µM. Further, the GI50 is above 100 µM in the experiment on OVCAR-4 ovarian and 27.2 µM with U251 CNS. In addition, the TGI with HOP-62 NSCLC, in the experiment with OVCAR-5 ovarian, in the experiment with NCI-H522 lung, in the experiment on SK-OV-3 ovarian, in the experiment with MOLT-4 leukemia and with SNB-19 CNS was above 100 µM throughout. In addition, the TGI in the experiment with OVCAR-4 ovarian and in the experiment with U251 CNS was above 100 µM each time.

Turning to `COC(=O)C1CCC(Nc2ccc(C)cc2C)=N1` (centres undefined), the TGI in the experiment with HOP-62 NSCLC, in the experiment with OVCAR-5 ovarian, in the experiment on NCI-H522 lung, in the experiment with SK-OV-3 ovarian, in the experiment on MOLT-4 leukemia and with SNB-19 CNS was above 100 µM throughout. Further, the TGI in the experiment on OVCAR-4 ovarian and with U251 CNS was above 100 µM each time.

As for `CCOC(=O)c1c(-c2ccccc2)oc(-c2ccccc2)c1C(=O)OCC`, the TGI in the experiment with HOP-62 NSCLC, in the experiment on OVCAR-5 ovarian, in the experiment on NCI-H522 lung, in the experiment on SK-OV-3 ovarian, in the experiment on MOLT-4 leukemia and in the experiment with SNB-19 CNS was above 100 µM in each case. The compound further had a TGI with U251 CNS above 100 µM.

With `Cc1noc2cccc(OCc3ccccc3)c12`, the TGI in the experiment on HOP-62 NSCLC, with OVCAR-5 ovarian, with NCI-H522 lung, with SK-OV-3 ovarian, in the experiment on MOLT-4 leukemia and in the experiment with SNB-19 CNS was above 100 µM each time. Further, the TGI with OVCAR-4 ovarian and in the experiment on U251 CNS was above 100 µM each time.
